According to patent US10239849B2 (Merck Sharp & Dohme Corp., priority 2015, dated 2019):
pEC50: −log10 of the molar value.

Legend:
[1] = molecular target: T1, glutathione-S-transferase (GST) tagged LXRbeta LBD (ligand binding domain) (Homo sapiens, UniProt P55055); assay: LanthaScreen TR-FRET Liver X Receptor Coactivator Assay, LXR beta-LBD; type: biochemical; conditions: for Emax: efficacy in relation to reference dual agonist T1317, read-out: LXR beta activity at max dose (%) (Emax); for pEC50: potency (Inflection Point) of co-activator recruitment, TR-FRET, read-out: LXR beta IP
T1 construct: purchased Invitrogen pv4658.pps
T1 sequence (P55055 222-460 limits assumed): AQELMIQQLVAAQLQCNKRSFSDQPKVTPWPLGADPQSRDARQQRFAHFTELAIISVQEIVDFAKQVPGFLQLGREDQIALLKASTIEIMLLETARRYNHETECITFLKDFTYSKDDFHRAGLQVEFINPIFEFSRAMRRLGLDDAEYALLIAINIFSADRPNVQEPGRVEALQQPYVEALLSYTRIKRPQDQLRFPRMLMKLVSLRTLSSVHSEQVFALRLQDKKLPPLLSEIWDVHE
How it was run: (§1)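 Compound + LBD (alpha or beta); add fluorescein coactivator peptide/Tb anti-GST Ab mix; incubate RT; read TR-FRET.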

[2] = molecular target: T2, glutathione-S-transferase (GST) tagged LXRalpha LBD (ligand binding domain) (Homo sapiens, UniProt Q13133); assay: LanthaScreen TR-FRET Liver X Receptor Coactivator Assay, LXR alpha-LBD; type: biochemical; conditions: for Emax: efficacy in relation to reference dual agonist T1317, read-out: LXR alpha activity at max dose (%) (Emax); for pEC50 / LXR alpha IP (nM): potency (Inflection Point) of co-activator recruitment, TR-FRET; for pEC50: read-out: LXR alpha IP
T2 construct: purchased Invitrogen pv4655
T2 sequence (Q13133 209-447 limits assumed): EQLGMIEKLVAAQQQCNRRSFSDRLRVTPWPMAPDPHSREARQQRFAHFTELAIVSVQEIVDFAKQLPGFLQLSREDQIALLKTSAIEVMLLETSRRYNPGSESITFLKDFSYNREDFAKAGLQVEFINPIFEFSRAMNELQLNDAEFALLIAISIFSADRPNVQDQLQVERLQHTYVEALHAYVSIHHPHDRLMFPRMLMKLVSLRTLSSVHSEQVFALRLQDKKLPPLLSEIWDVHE
How it was run: as §1

| SMILES | Emax [1] | pEC50 [1] | Emax [2] | pEC50 [2] | LXR alpha IP (nM) [2] |
| --- | --- | --- | --- | --- | --- |
| CN(C)C(=O)c1ccc(-c2ccc(N3CCN(S(=O)(=O)c4c(Cl)cccc4C(F)(F)F)CC3)cc2)cc1Cl [Example 4-14, 3-chloro-4′-(4-{[2-chloro-6-(trifluoromethyl)phenyl]sulfonyl}piperazin-1-yl)-N,N-dimethylbiphenyl-4-carboxamide] | 88% | 6.26 | 25% | 5.01 | – |
| CN(C)C(=O)c1ccc(-c2ccc(N3CCN(C(=O)c4ccccc4Cl)CC3)cc2)cc1Cl [Example 4-15, 3-chloro-4′-{4-[(2-chlorophenyl)carbonyl]piperazin-1-yl}-N,N-dimethylbiphenyl-4-carboxamide] | 85% | 5.78 | 16% | – | No IP |
| CN(C)C(=O)c1ccc(-c2ccc(N3CCN(C(=O)c4c(F)cccc4F)CC3)cc2)cc1Cl [Example 4-16, 3-chloro-4′-{4-[(2,6-difluorophenyl)carbonyl]piperazin-1-yl}-N,N-dimethylbiphenyl-4-carboxamide] | 77% | 5.38 | 19% | – | No IP |
| CN(C)C(=O)c1ccc(-c2ccc(N3CCN(C(=O)c4ccccc4C(F)(F)F)CC3)cc2)cc1Cl [Example 4-17, 3-chloro-N,N-dimethyl-4′-(4-{[2-(trifluoromethyl)phenyl]carbonyl}piperazin-1-yl)biphenyl-4-carboxamide] | 80% | 5.86 | 9% | – | No IP |
| CC(C)C(O)(C(=O)N1CCN(c2ccc(-c3ccc(C(=O)N(C)C)c(Cl)c3)cc2)CC1)C(F)(F)F (centres unmarked) [Example 4-18, 3-chloro-4′-{4-[2-hydroxy-3-methyl-2-(trifluoromethyl)butanoyl]piperazin-1-yl}-N,N-dimethylbiphenyl-4-carboxamide] | 65% | 6.59 | 20% | 5.89 | – |
| CN(C)C(=O)c1ccc(-c2ccc(N3CCN(C(=O)c4c(F)cccc4Cl)CC3)cc2)cc1Cl [Example 4-19, 3-chloro-4′-{4-[(2-chloro-6-fluorophenyl)carbonyl]piperazin-1-yl}-N,N-dimethylbiphenyl-4-carboxamide] | 93% | 5.90 | 20% | 4.77 | – |
| CN(CCO)C(=O)c1ccc(-c2cnc(N3CCN(C(=O)OC(C)(C)C)CC3)c(C#N)c2)cc1Cl [Example 5-1, tert-butyl-4-(5-{3-chloro-4-[(2-hydroxyethyl)(methyl)carbamoyl]phenyl}-3-cyanopyridin-2-yl)piperazine-1-carboxylate] | 80% | 7.40 | 68% | 5.90 | – |
| CC(C)(C)OC(=O)N1CCN(c2ncc(-c3ccc(C(N)=O)c(Cl)c3)cc2C#N)CC1 [Example 5-2, tert-butyl 4-[5-(4-carbamoyl-3-chlorophenyl)-3-cyanopyridin-2-yl]piperazine-1-carboxylate] | 94% | 7.03 | 66% | 5.69 | – |
| CNC(=O)c1ccc(-c2cnc(N3CCN(C(=O)OC(C)(C)C)CC3)c(C#N)c2)cc1Cl [Example 5-3, tert-butyl 4-{5-[3-chloro-4-(methylcarbamoyl)phenyl]-3-cyanopyridin-2-yl}piperazine-1-carboxylate] | 82% | 6.75 | 76% | 4.47 | – |
| CC(C)(C)OC(=O)N1CCN(c2ncc(-c3ccc(C(=O)N4CCC4)c(Cl)c3)cc2C#N)CC1 [Example 5-4, tert-butyl 4-{5-[4-(azetidin-1-ylcarbonyl)-3-chlorophenyl]-3-cyanopyridin-2-yl}piperazine-1-carboxylate] | 71% | 5.82 | 39% | 4.67 | – |
| CCN(C)C(=O)c1ccc(-c2cnc(N3CCN(C(=O)OC(C)(C)C)CC3)c(C#N)c2)cc1Cl [Example 5-5, tert-butyl 4-(5-{3-chloro-4-[ethyl(methyl)carbamoyl]phenyl}-3-cyanopyridin-2-yl)piperazine-1-carboxylate] | 76% | 7.06 | 54% | 5.57 | – |
| CN(C)NC(=O)c1ccc(-c2cnc(N3CCN(C(=O)OC(C)(C)C)CC3)c(C#N)c2)cc1Cl [Example 5-6, tert-butyl 4-(5-{3-chloro-4-[(2,2-dimethylhydrazino)carbonyl]phenyl}-3-cyanopyridin-2-yl)piperazine-1-carboxylate] | 77% | 6.36 | 43% | 5.06 | – |
| CON(C)C(=O)c1ccc(-c2cnc(N3CCN(C(=O)OC(C)(C)C)CC3)c(C#N)c2)cc1Cl [Example 5-7, tert-butyl 4-(5-{3-chloro-4-[methoxy(methyl)carbamoyl]phenyl}-3-cyanopyridin-2-yl)piperazine-1-carboxylate] | 69% | 7.09 | 39% | 5.58 | – |
| CN(CC#N)C(=O)c1ccc(-c2cnc(N3CCN(C(=O)OC(C)(C)C)CC3)c(C#N)c2)cc1Cl [Example 5-8, tert-butyl 4-(5-{3-chloro-4-[(cyanomethyl) (methyl)carbamoyl]phenyl}-3-cyanopyridin-2-yl)piperazine-1-carboxylate] | 91% | 6.77 | 58% | 4.83 | – |
| CC(C)(C)OC(=O)N1CCN(c2ncc(-c3ccc(C(=O)N4CCCC4)c(Cl)c3)cc2C#N)CC1 [Example 5-9, tert-butyl 4-{5-[3-chloro-4-(pyrrolidin-1-ylcarbonyl)phenyl]-3-cyanopyridin-2-yl}piperazine-1-carboxylate] | 71% | 6.56 | 48% | 4.84 | – |
| CC(C)(C)OC(=O)N1CCN(c2ncc(-c3ccc(C(=O)NCCCO)c(Cl)c3)cc2C#N)CC1 [Example 5-10, tert-butyl 4-(5-{3-chloro-4-[(3-hydroxypropyl)carbamoyl]phenyl}-3-cyanopyridin-2-yl)piperazine-1-carboxylate] | 63% | 5.96 | 37% | 5.57 | – |
| CC(C)(C)OC(=O)N1CCN(c2ncc(-c3ccc(C(=O)N4CCCCC4)c(Cl)c3)cc2C#N)CC1 [Example 5-11, tert-butyl 4-{5-[3-chloro-4-(piperidin-1-ylcarbonyl)phenyl]-3-cyanopyridin-2-yl}piperazine-1-carboxylate] | 59% | 6.52 | 89% | 4.93 | – |
| CC(C)(C)OC(=O)N1CCN(c2ncc(-c3ccc(C(=O)N4CC[C@@H](O)C4)c(Cl)c3)cc2C#N)CC1 [Example 5-12, tert-butyl 4-[5-(3-chloro-4-{[(3R)-3-hydroxypyrrolidin-1-yl]carbonyl}phenyl)-3-cyanopyridin-2-yl]piperazine-1-carboxylate] | 60% | 6.32 | 37% | 5.07 | – |
| CC(C)(C)OC(=O)N1CCN(c2ncc(-c3ccc(C(=O)N4CC[C@H](O)C4)c(Cl)c3)cc2C#N)CC1 [Example 5-13, tert-butyl 4-[5-(3-chloro-4-{[(3S)-3-hydroxypyrrolidin-1-yl]carbonyl}phenyl)-3-cyanopyridin-2-yl]piperazine-1-carboxylate] | 62% | 6.58 | 44% | 5.16 | – |
| CC(C)(C)OC(=O)N1CCN(c2ncc(-c3ccc(C(=O)N4CCOCC4)c(Cl)c3)cc2C#N)CC1 [Example 5-14, tert-butyl 4-{5-[3-chloro-4-(morpholin-4-ylcarbonyl)phenyl]-3-cyanopyridin-2-yl}piperazine-1-carboxylate] | 63% | 6.48 | 38% | 4.90 | – |
| CN(CCCO)C(=O)c1ccc(-c2cnc(N3CCN(C(=O)OC(C)(C)C)CC3)c(C#N)c2)cc1Cl [Example 5-15, tert-butyl 4-(5-{3-chloro-4-[(3-hydroxypropyl) (methyl)carbamoyl]phenyl}-3-cyanopyridin-2-yl)piperazine-1-carboxylate] | 70% | 6.58 | 42% | 5.16 | – |
| CC(C)(C)OC(=O)N1CCN(c2ncc(-c3ccc(C(=O)NCc4ncc[nH]4)c(Cl)c3)cc2C#N)CC1 [Example 5-16, tert-butyl 4-(5-{3-chloro-4-[(1H-imidazol-2-ylmethyl)carbamoyl]phenyl}-3-cyanopyridin-2-yl)piperazine-1-carboxylate] | 91% | 7.37 | 68% | 5.84 | – |
| CC(C)(C)OC(=O)N1CCN(c2ncc(-c3ccc(C(=O)N4CCC(O)CC4)c(Cl)c3)cc2C#N)CC1 [Example 5-17, tert-butyl 4-(5-{3-chloro-4-[(4-hydroxypiperidin-1-yl)carbonyl]phenyl}-3-cyanopyridin-2-yl)piperazine-1-carboxylate] | 47% | 6.38 | 17% | – | No IP |
